Assay results: PubChem BioAssay AID256 (DTP/NCI, 2004)
Several values for one entry are separate records, joined by “and”; a condition that tells them apart may be missing. Equal entries are not always repeated. Toxic doses and inconclusive results are not listed.

Tested on: CD2F1 mice, L1210 leukemia ip, survival T/C
Experiment: NCI In Vivo Anticancer Drug Screen. Data for tumor model L1210 Leukemia (intraperitoneal) in CD2F1 (CDF1) mice
Details: endpoint: mean survival time, higher = longer survival
In short: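 Read-out first: treated-group measurement over vehicle-control measurement, expressed as a ratio. Animals bore a transplanted tumor line and were dosed with compound or vehicle.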

[1] = dose: 100.0 mg/kg/injection, schedule: Q04DX002 (ip), vehicle: saline with Tween-80
[2] = dose: 75.0 mg/kg/injection, schedule: Q01DX001 (ip), vehicle: other
[3] = dose: 150.0 mg/kg/injection, schedule: Q01DX001 (ip), vehicle: other
[4] = dose: 300.0 mg/kg/injection, schedule: Q01DX001 (ip), vehicle: other
[5] = dose: 75.0 mg/kg/injection, schedule: Q01DX001 (ip), vehicle: saline
[6] = dose: 150.0 mg/kg/injection, schedule: Q01DX001 (ip), vehicle: saline
[7] = dose: 100.0 mg/kg/injection, schedule: Q01DX001 (ip), vehicle: saline with Tween-80
[8] = dose: 200.0 mg/kg/injection, schedule: Q01DX001 (ip), vehicle: saline with Tween-80
[9] = dose: 400.0 mg/kg/injection, schedule: Q01DX001 (ip), vehicle: saline with Tween-80
[10] = dose: 200.0 mg/kg/injection, schedule: Q04DX002 (ip), vehicle: saline with Tween-80
[11] = dose: 400.0 mg/kg/injection, schedule: Q04DX002 (ip), vehicle: saline with Tween-80

With Nc1cc2c(c[n+](CCCCCCCC[n+]3cc4c5ccccc5c(N)cc4c4ccccc43)c3ccccc23)c2ccccc12 the T/C (dose: 0.78 mg/kg/injection, schedule: Q04DX003 (ip), vehicle: other) was 114 % of control, the T/C (dose: 1.56 mg/kg/injection, schedule: Q04DX003 (ip), vehicle: other) was 157 % of control and the T/C (dose: 3.13 mg/kg/injection, schedule: Q04DX003 (ip), vehicle: other) was 124 % of control. For the same molecule, the T/C (dose: 12.5 mg/kg/injection, schedule: Q04DX003 (ip), vehicle: other) was 157 % of control and the T/C (dose: 50.0 mg/kg/injection, schedule: Q04DX003 (ip), vehicle: other) was 124 % of control and 103 % of control.

In the case of [NH-]C1CCCCC1[NH-].[NH-]C1CCCCC1[NH-].[Ni] (stereo not drawn), the T/C [1] was 110 % of control.

In the case of CC1CC2C3(C1)CC(C(=O)OC3=O)C2(C)C (stereo not drawn), the T/C [2] was 94 % of control, the T/C [3] was 92 % of control and the T/C [4] was 92 % of control.

With CCCCCC/C(C)=C(/C#N)C(=O)OC the T/C [5] was 94 % of control, the T/C [6] was 97 % of control and the T/C (dose: 300.0 mg/kg/injection, schedule: Q01DX001 (ip), vehicle: saline) was 96 % of control.

COc1cc2ccc3c4cc(OC)c(OC)cc4c[n+](C)c3c2cc1O was tested, and the T/C (dose: 75.0 mg/kg/injection, schedule: Q04DX003 (ip), vehicle: Klucel (hydroxypropylcellulose) (HPC)) was 113 % of control, the T/C (dose: 150.0 mg/kg/injection, schedule: Q04DX003 (ip), vehicle: Klucel (hydroxypropylcellulose) (HPC)) was 113 % of control and the T/C (dose: 300.0 mg/kg/injection, schedule: Q04DX003 (ip), vehicle: Klucel (hydroxypropylcellulose) (HPC)) was 119 % of control.

O=C1CSC(=S)N1/N=C/c1ccc2c(c1)OCO2 was tested, and the T/C [2] was 94 % of control, the T/C [3] was 93 % of control and the T/C [4] was 97 % of control.

In the case of CCOC(=O)C(NCc1ccccc1)C(=O)OCC, the T/C (dose: 12.5 mg/kg/injection, schedule: Q01DX009 (ip), vehicle: water) was 96 % of control, the T/C (dose: 25.0 mg/kg/injection, schedule: Q01DX009 (ip), vehicle: water) was 98 % of control and the T/C (dose: 50.0 mg/kg/injection, schedule: Q01DX009 (ip), vehicle: water) was 101 % of control. For the same molecule, the T/C (dose: 100.0 mg/kg/injection, schedule: Q01DX009 (ip), vehicle: water) was 93 % of control.

In the case of O=C1C(=O)c2ccccc2C(O)=C1CNCCO, the T/C [7] was 97 % of control, the T/C [8] was 94 % of control and the T/C [9] was 94 % of control.

In the case of CC1CCc2ccccc2N1CCN (stereo not drawn), the T/C (dose: 100.0 mg/kg/injection, schedule: Q04DX003 (ip), vehicle: Klucel (hydroxypropylcellulose) (HPC)) was 95 % of control.

In the case of CCCCN(CCCC)P1(=O)OCCO1, the T/C (dose: 100.0 mg/kg/injection, schedule: Q04DX002 (ip), vehicle: saline) was 103 % of control, the T/C (dose: 200.0 mg/kg/injection, schedule: Q04DX002 (ip), vehicle: saline) was 107 % of control and the T/C (dose: 400.0 mg/kg/injection, schedule: Q04DX002 (ip), vehicle: saline) was 98 % of control.

With CSc1nc(=O)[nH]nc1Sc1ccccc1 the T/C [5] was 102 % of control and the T/C [6] was 101 % of control.

In the case of O=C(CCO)CC(=O)CCc1ccccc1Cl, the T/C (dose: 100.0 mg/kg/injection, schedule: Q04DX003 (ip), vehicle: saline with Tween-80) was 97 % of control, the T/C (dose: 200.0 mg/kg/injection, schedule: Q04DX003 (ip), vehicle: saline with Tween-80) was 103 % of control and the T/C (dose: 400.0 mg/kg/injection, schedule: Q04DX003 (ip), vehicle: saline with Tween-80) was 91 % of control.

CCCOc1cc[n+]([O-])c2ccccc12 was tested, and the T/C [1] was 94 % of control and the T/C [10] was 94 % of control.

For CCCN1CSC(=S)N(Cc2ccccc2)C1, the T/C (dose: 100.0 mg/kg/injection, schedule: Q01DX009 (ip), vehicle: saline with Tween-80) was 92 % of control, the T/C (dose: 200.0 mg/kg/injection, schedule: Q01DX009 (ip), vehicle: saline with Tween-80) was 97 % of control and the T/C (dose: 400.0 mg/kg/injection, schedule: Q01DX009 (ip), vehicle: saline with Tween-80) was 92 % of control.

In the case of Cc1ccc2cccc(CC(=O)O)c2c1, the T/C [1] was 102 % of control, the T/C [10] was 98 % of control and the T/C [11] was 91 % of control.

For [CH3][Sb]([CH3])([CH3])([O]C(=O)CCl)[O]C(=O)CCl, the T/C [1] was 107 % of control, the T/C [10] was 107 % of control and the T/C [11] was 103 % of control.

In the case of CN(C)c1ccc(/C=C/c2cc[n+](C)cc2)cc1, the T/C (dose: 4.0 mg/kg/injection, schedule: Q01DX009 (ip), vehicle: saline) was 97 % of control and the T/C (dose: 8.0 mg/kg/injection, schedule: Q01DX009 (ip), vehicle: saline) was 94 % of control.

In the case of CC1(C)COC(c2ccc(-c3ccc(C4=NC(C)(C)CO4)cc3)cc2)=N1, the T/C [7] was 105 % of control, the T/C [8] was 100 % of control and the T/C [9] was 100 % of control.

O=C(COc1ccccc1)Nc1ccc(Br)cc1 was tested, and the T/C (dose: 100.0 mg/kg/injection, schedule: Q01DX001 (ip), vehicle: Klucel (hydroxypropylcellulose) (HPC)) was 97 % of control, the T/C (dose: 200.0 mg/kg/injection, schedule: Q01DX001 (ip), vehicle: Klucel (hydroxypropylcellulose) (HPC)) was 105 % of control and the T/C (dose: 400.0 mg/kg/injection, schedule: Q01DX001 (ip), vehicle: Klucel (hydroxypropylcellulose) (HPC)) was 105 % of control.
